Laboratory results from BigSolDB 2.1.

Cc1c(OCC(F)(F)F)ccnc1CS(=O)c1nc2ccccc2[nH]1 (stereo unspecified)
solubility (mole fraction)
Details | in 2-butanone | in MIBK | in acetone | in ethyl acetate | in isobutyl acetate | in isopropanol | in n-butanol | in n-butyl acetate | in n-pentanol | in n-propanol
283.15 K | 0.00289 | 0.0013 | 0.00249 | 0.00137 | 0.000784 | 0.00082 | 0.0012 | 0.000987 | 0.00138 | 0.00166
288.15 K | 0.00349 | 0.00154 | – | 0.00164 | 0.000965 | 0.000922 | 0.00166 | 0.0012 | 0.00184 | 0.00206
290.15 K | – | – | 0.0031 | – | – | – | – | – | – | –
293.15 K | 0.00412 | 0.00183 | – | 0.002 | 0.00117 | 0.00124 | 0.00215 | 0.00144 | 0.00227 | 0.0026
297.15 K | – | – | 0.00395 | – | – | – | – | – | – | –
298.15 K | 0.00489 | 0.00216 | – | 0.00245 | 0.00136 | 0.00161 | 0.0027 | 0.00172 | 0.00281 | 0.00314
303.15 K | 0.00578 | 0.00255 | – | 0.00291 | 0.00161 | 0.00202 | 0.00336 | 0.00195 | 0.00344 | 0.00388
304.15 K | – | – | 0.00494 | – | – | – | – | – | – | –
308.15 K | 0.00697 | 0.00307 | – | 0.00343 | 0.00193 | 0.00261 | 0.00419 | 0.00232 | 0.00412 | 0.00468
311.15 K | – | – | 0.00626 | – | – | – | – | – | – | –
313.15 K | 0.0083 | 0.00362 | – | 0.00416 | 0.00228 | 0.00333 | 0.00515 | 0.00271 | 0.00518 | 0.00588
318.15 K | – | – | 0.00801 | 0.00469 | – | 0.00422 | – | – | – | –
